Results published in patent US11331271B2, “Buccal, sublingual and intranasal delivery of fospropofol” (The Johns Hopkins University, priority 2016, dated 2022).

Test system: healthy male volunteers
Assay: Human Study 1: treatment-emergent adverse events (TEAE), safety, Modified OAA/S
Format: in vivo
Description: In human study 1, fospropofol disodium was formulated as a sterile aqueous solution at a concentration of 20 mg/mL. Each vial provided contained 20 mL of solution, suitable for intravenous injection. Fospropofol was administered as a single dose of 400 mg orally, directly into the duodenum by gastroscopy or intravenously over 10 min. In human study 2, fospropofol disodium in capsules (200 mg) or matching placebo was administered orally.
The first study was an absolute bioavailability study of fospropofol conducted at a single center (PRA Health Sciences) in Groningen, Netherlands, as a three-way crossover study. The study enrolled 7 healthy male volunteers between 18 and 45 years of age inclusive, with a body mass index between 18 and 28 kg/m^2. Subjects stayed in the clinical unit for three consecutive periods of 3 days each, with a 3-day washout, between periods. For six subjects, the order of the administration routes was as follows—period 1: PO, period 2: ID, and period 3: IV. For one subject the order of the administration routes was the following—period 1: ID, period 2: IV and period 3: PO. In this study a single dose of 400 mg was administered by each route. Blinding and placebo control was impractical due to the requirement of unsedated endoscopic administration of fospropofol into the duodenum. Safety and overall pharmacodynamic effect was evaluated based on adverse events, vital signs, electrocardiogram (ECG), Modified Observer's Assessment of Alertness/Sedation (OAA/S) score, clinical laboratory tests, and physical examination.

Question: Which results are given for `CC(C)c1cccc(C(C)C)c1OCOP(=O)(O)O` [fospropofol]?
Answer: TEAE GASTROINTESTINAL DISORDERS, events (E) (400 mg ID): 1; TEAE GASTROINTESTINAL DISORDERS, subjects (%) (400 mg ID): 14%; TEAE GENERAL DISORDERS AND ADMINISTRATION SITE CONDITIONS, events (E) (400 mg ID): 3; TEAE GENERAL DISORDERS AND ADMINISTRATION SITE CONDITIONS, subjects (%) (400 mg ID): 43%; TEAE INFECTIONS AND INFESTATIONS, events (E) (400 mg ID): 1; TEAE INFECTIONS AND INFESTATIONS, subjects (%) (400 mg ID): 14%; TEAE NERVOUS SYSTEM DISORDERS, events (E) (400 mg ID): 3; TEAE NERVOUS SYSTEM DISORDERS, subjects (%) (400 mg ID): 43%; TEAE SKIN AND SUBCUTANEOUS TISSUE DISORDERS, events (E) (400 mg ID): 1; TEAE SKIN AND SUBCUTANEOUS TISSUE DISORDERS, subjects (%) (400 mg ID): 14%; TEAE TOTAL, events (E) (400 mg ID): 9; TEAE TOTAL, subjects (%) (400 mg ID): 86%; TEAE dizziness, events (E) (400 mg ID): 1; TEAE dizziness, subjects (%) (400 mg ID): 14%; TEAE fatigue, events (E) (400 mg ID): 2; TEAE fatigue, subjects (%) (400 mg ID): 29%; TEAE flatulence, events (E) (400 mg ID): 1; TEAE flatulence, subjects (%) (400 mg ID): 14%; TEAE herpes simplex, events (E) (400 mg ID): 1; TEAE herpes simplex, subjects (%) (400 mg ID): 14%; TEAE rash, events (E) (400 mg ID): 1; TEAE rash, subjects (%) (400 mg ID): 14%; TEAE somnolence, events (E) (400 mg ID): 2; TEAE somnolence, subjects (%) (400 mg ID): 29%; TEAE subrapubic pain, events (E) (400 mg ID): 1; TEAE subrapubic pain, subjects (%) (400 mg ID): 14%; subjects with Modified OAA/S score of 4 (400 mg ID): 43%; subjects with Modified OAA/S score of 4 (n of 7) (400 mg ID): Three; TEAE BLOOD AND LYMPHATIC SYSTEM DISORDERS, events (E) (400 mg IV): 1; TEAE BLOOD AND LYMPHATIC SYSTEM DISORDERS, subjects (%) (400 mg IV): 14%; TEAE EYE DISORDERS, events (E) (400 mg IV): 5; TEAE EYE DISORDERS, subjects (%) (400 mg IV): 71%; TEAE GASTROINTESTINAL DISORDERS, events (E) (400 mg IV): 4; TEAE GASTROINTESTINAL DISORDERS, subjects (%) (400 mg IV): 43%; TEAE GENERAL DISORDERS AND ADMINISTRATION SITE CONDITIONS, events (E) (400 mg IV): 9; TEAE GENERAL DISORDERS AND ADMINISTRATION SITE CONDITIONS, subjects (%) (400 mg IV): 57%; TEAE MUSCULOSKELETAL AND CONNECTIVE TISSUE DISORDERS, events (E) (400 mg IV): 2; TEAE MUSCULOSKELETAL AND CONNECTIVE TISSUE DISORDERS, subjects (%) (400 mg IV): 29%; TEAE NERVOUS SYSTEM DISORDERS, events (E) (400 mg IV): 31; TEAE NERVOUS SYSTEM DISORDERS, subjects (%) (400 mg IV): 100%; TEAE PSYCHIATRIC DISORDERS, events (E) (400 mg IV): 2; TEAE PSYCHIATRIC DISORDERS, subjects (%) (400 mg IV): 29%; TEAE REPRODUCTVE SYSTEM AND BREAST DISORDERS, events (E) (400 mg IV): 1; TEAE REPRODUCTVE SYSTEM AND BREAST DISORDERS, subjects (%) (400 mg IV): 14%; TEAE SKIN AND SUBCUTANEOUS TISSUE DISORDERS, events (E) (400 mg IV): 1; TEAE SKIN AND SUBCUTANEOUS TISSUE DISORDERS, subjects (%) (400 mg IV): 14%; TEAE TOTAL, events (E) (400 mg IV): 56; TEAE TOTAL, subjects (%) (400 mg IV): 100%; TEAE burning sensation, events (E) (400 mg IV): 6; TEAE burning sensation, subjects (%) (400 mg IV): 43%; TEAE catheter site pain, events (E) (400 mg IV): 1; TEAE catheter site pain, subjects (%) (400 mg IV): 14%; TEAE diplopia, events (E) (400 mg IV): 1; TEAE diplopia, subjects (%) (400 mg IV): 14%; TEAE disorientation, events (E) (400 mg IV): 1; TEAE disorientation, subjects (%) (400 mg IV): 14%; TEAE dizziness postural, events (E) (400 mg IV): 1; TEAE dizziness postural, subjects (%) (400 mg IV): 14%; TEAE dizziness, events (E) (400 mg IV): 3; TEAE dizziness, subjects (%) (400 mg IV): 43%; TEAE dry mouth, events (E) (400 mg IV): 1; TEAE dry mouth, subjects (%) (400 mg IV): 14%; TEAE dyspepsia, events (E) (400 mg IV): 1; TEAE dyspepsia, subjects (%) (400 mg IV): 14%; TEAE ecchymosis, events (E) (400 mg IV): 1; TEAE ecchymosis, subjects (%) (400 mg IV): 14%; TEAE euphoric mood, events (E) (400 mg IV): 1; TEAE euphoric mood, subjects (%) (400 mg IV): 14%; TEAE fatigue, events (E) (400 mg IV): 2; TEAE fatigue, subjects (%) (400 mg IV): 29%; TEAE feeling abnormal, events (E) (400 mg IV): 1; TEAE feeling abnormal, subjects (%) (400 mg IV): 14%; TEAE feeling cold, events (E) (400 mg IV): 1; TEAE feeling cold, subjects (%) (400 mg IV): 14%; TEAE feeling drunk, events (E) (400 mg IV): 1; TEAE feeling drunk, subjects (%) (400 mg IV): 14%; TEAE genital pruritis male, events (E) (400 mg IV): 1; TEAE genital pruritis male, subjects (%) (400 mg IV): 14%; TEAE lymph node pain, events (E) (400 mg IV): 1; TEAE lymph node pain, subjects (%) (400 mg IV): 14%; TEAE muscle fatigue, events (E) (400 mg IV): 2; TEAE muscle fatigue, subjects (%) (400 mg IV): 29%; TEAE nausea, events (E) (400 mg IV): 1; TEAE nausea, subjects (%) (400 mg IV): 14%; TEAE paresthesia, events (E) (400 mg IV): 9; TEAE paresthesia, subjects (%) (400 mg IV): 86%; TEAE proctalgia, events (E) (400 mg IV): 1; TEAE proctalgia, subjects (%) (400 mg IV): 14%; TEAE sluggishness, events (E) (400 mg IV): 3; TEAE sluggishness, subjects (%) (400 mg IV): 43%; TEAE somnolence, events (E) (400 mg IV): 5; TEAE somnolence, subjects (%) (400 mg IV): 71%; TEAE speech disorder, events (E) (400 mg IV): 6; TEAE speech disorder, subjects (%) (400 mg IV): 86%; TEAE tremor, events (E) (400 mg IV): 1; TEAE tremor, subjects (%) (400 mg IV): 14%; TEAE visual disturbance, events (E) (400 mg IV): 4; TEAE visual disturbance, subjects (%) (400 mg IV): 54%; subjects with Modified OAA/S score of 4 (400 mg IV): 57%; subjects with Modified OAA/S score of 4 (n of 7) (400 mg IV): 4; time to resolution of euphoria (400 mg IV, one subject): 34 min; TEAE GASTROINTESTINAL DISORDERS, events (E) (400 mg PO): 1; TEAE GASTROINTESTINAL DISORDERS, subjects (%) (400 mg PO): 14%
